From patent US10526580B2, “Differentiated cell population of endothelial cells derived from human pluripotent stem cells, composition, system, kit and uses thereof” (BIOCANT-ASSOCIAÇÃO DE TRANSFERÊNCIA DE TECNOLOGIA, priority 2012, dated 2020) come the findings set out here.

The test system of the test is hESC-derived ECs versus ACL cells. Kind of test: High-throughput screening of LOPAC library, PrestoBlue cell viability, hESC-derived ECs versus ACL cells. The format is cell-based, human. As to conditions: LOPAC screen, 4.5 μM, 4 days of incubation, PrestoBlue assay. The procedure: High-throughput screening (HTS). HUAECS (Lonza) and hESC-derived ECs were cultured in EGM-2 medium while human anterior cruciate ligament cells (ACL cells) were cultured in Dulbecco's modified Eagle's medium (DMEM; PAA) supplemented with 10% FBS, 0.2 mM ascorbic acid 2-phosphate magnesium salt (Sigma Aldrich), […] streptomycin and 100 U/mL penicillin (Life Technologies). ACL cells were isolated from patients that have signed an informed consent form, in compliance with the Dutch legislation. The ethical committee of Medisch Spectrum Twente Hospital approved the collection.
The LOPAC library (Sigma-Aldrich) was used to screen embryonic endothelial-specific cytotoxic compounds. The compounds were solubilized in DMSO. The final compound concentration used in the screen was 4.5 μM in a final volume of 200 μL per well (96-well plate). HUAECs, hESC-derived EC and ACL cells were seeded at 16,000 cells/well (HUAECs and hESC-derived ECs) and 5,000 cells/well (ACL cells) and allowed to reach near confluence (approximately two days). After two days, medium was exchanged and test compounds and controls were added to the 96-well plates (all wells contained 0.25% (v/v) DMSO). After 4 days of incubation, cell viability was assessed using a PrestoBlue (Invitrogen) assay. This assay is based on a resazurin-based solution that indicates the reducing power of living cells and therefore measures indirectly their number. For each measurement, cell medium was removed and the PrestoBlue solution (10%) was added for 3 h at 37° C. upon which the absorbance was measured at 560-590 nm.
Disruption of vascular development has been directly correlated with prenatal loss, malformations and neurodevelopmental problems^41-44. […] The library was screened at a single dosage of 4.5 μM in a volume of 200 μL per well of EGM-2 medium, containing 0.25% DMSO (v/v). […] Six compounds (danazol, chlorpromazine hydrochloride, ellipticine, 3′,4′-dichlorobenzamil, fluphenazine dihydrochloride and 7-cyclopentyl-5-(4-phenoxy)phenyl-7H-pyrrolo[2,3-d]pyrimidin-4-ylamine) affected cell viability in both cells by a difference of 20% (FIG. 4B). The six compounds belong to different classes: cell cycle, ion pumps, dopamine pathway, phosphorylation and hormone signaling. The compounds selected from the primary screen were then tested against hESC-derived ECs and HUAECs at eight different concentrations to obtain a dose-response curve (FIG. 4C and FIG. 14).

Structures can show the parent of a compound that is named as a salt.

Take `COc1ccc(CCN(C)CCCC(C#N)(c2ccc(OC)c(OC)c2)C(C)C)cc1OC.Cl` (racemic) [(±)-Verapamil hydrochloride]: the “Differences (%) in cell viability (hESC-Derived ECs versus ACL cells)” value (“Differences (%) in cell viability” for short) is recorded as 85.1%.

As for `CCCCCCCCCCCCCCCCCC(=O)NCC(COP(=O)([O-])OCC[N+](C)(C)C)OCC` (racemic) [rac-2-Ethoxy-3-octadecanamido-1-propylphosphocholine], the “Differences (%) in cell viability” value is on record as 56.2%.

On to `Cn1c(=O)c2[nH]c(-c3ccccc3)nc2n(C)c1=O` [1,3-Dimethyl-8-phenylxanthine], for which the “Differences (%) in cell viability” value came to 68.8%.

Consider `COc1cc2c(cc1O)CC[C@@H]1[C@@H]2CC[C@]2(C)[C@@H](O)CC[C@@H]12` [2-methoxyestradiol], for which the “Differences (%) in cell viability” value worked out at 84.3%.

For the compound `O=c1[nH]c(=O)n([C@H]2C[C@H](O)[C@@H](CO)O2)cc1Br` [5-Bromo-2′-deoxyuridine], the “Differences (%) in cell viability” value was determined as 53.9%.

With `Nc1ncn([C@@H]2O[C@H](CO)[C@@H](O)[C@H]2O)c(=O)n1` [5-azacytidine], the “Differences (%) in cell viability” value stood at 56.1%.

Turning to `C[C@H]1O[C@@H](n2cc(F)c(=O)[nH]c2=O)[C@H](O)[C@@H]1O` [5-fluoro-5′-deoxyuridine], the “Differences (%) in cell viability” value came to 60.8%.

As for `Oc1cc(-c2ccccc2)nc2nc(Cl)ccc12` [7-Chloro-4-hydroxy-2-phenyl-1,8-naphthyridine], the “Differences (%) in cell viability” value is reported as 59.1%.

As for `CCN(CC)C(C)C(=O)N1c2ccccc2Sc2ccccc21.Cl` (stereo not drawn) [10-(alpha-Diethylaminopropionyl)-phenothiazine hydrochloride], the “Differences (%) in cell viability” value is 56.8%.

Turning to `CS(=O)(=O)O.Cc1c(C(=O)c2cccc3ccccc23)c2cccc3c2n1[C@H](CN1CCOCC1)CO3` [(R)-(+)-WIN 55,212-2 mesylate], the “Differences (%) in cell viability” value is recorded as 97.7%.

On to `CC[C@@]1(O)C(=O)OCc2c1cc1n(c2=O)Cc2cc3ccccc3nc2-1` [(S)-(+)-Camptothecin], for which the “Differences (%) in cell viability” value is 96.3%.

`CC1=C(C)C(=O)C(CCCCC#CCCCC#CCO)=C(C)C1=O` [AA-861]: the “Differences (%) in cell viability” value amounted to 53.3%.

With `CC(/C=C/c1cccc(Oc2ccc(F)cc2)c1)N(O)C(N)=O` (stereo not drawn) [BWB70C], the “Differences (%) in cell viability” value worked out at 55.3%.

Take `C[C@H]1CCC/C=C/[C@@H]2C[C@H](O)C[C@H]2[C@H](O)/C=C/C(=O)O1` [Brefeldin A]: the “Differences (%) in cell viability” value was determined as 95.5%.

For `C=CCc1ccccc1OCC(O)CNC1(C)CCC(C(C)(C)NC(=O)CBr)CC1` (stereo not drawn) [Bromoacetyl alprenolol menthane], the “Differences (%) in cell viability” value is given as 93.4%.

For the compound `CNc1ccc2oc(C[C@H]3O[C@@]4(CC[C@H]3C)O[C@H]([C@H](C)C(=O)c3ccc[nH]3)[C@H](C)C[C@H]4C)nc2c1C(=O)O` [Calcimycin], the “Differences (%) in cell viability” value is 96.2%.

As for `Clc1ccc(C(c2ccc(Cl)cc2)n2cc[n+](CC(OCc3ccc(Cl)cc3Cl)c3ccc(Cl)cc3Cl)c2)cc1` (stereo not drawn) [Calmidazolium chloride], the “Differences (%) in cell viability” value was determined as 96.1%.

Turning to `CC1(C(=O)O)C2CCC(O2)C1(C)C(=O)O` (stereo not drawn) [Cantharidic Acid], the “Differences (%) in cell viability” value is listed as 93.8%.

In the case of `C[C@@]12C(=O)OC(=O)[C@]1(C)[C@H]1CC[C@@H]2O1` [Cantharidin], the “Differences (%) in cell viability” value came to 94.3%.

`CN(C)CC/C=C1/c2ccccc2Sc2ccc(Cl)cc21` [Chlorprothixene hydrochloride]: the “Differences (%) in cell viability” value amounted to 58.1%.

Take `COc1cc2c(c(OC)c1OC)-c1ccc(OC)c(=O)cc1[C@@H](NC(C)=O)CC2` [Colchicine]: the “Differences (%) in cell viability” value is given as 67.4%.

`CCn1c(=O)[nH]c2cc(Cl)c(Cl)cc21` [DCEBIO]: the “Differences (%) in cell viability” value stood at 73.2%.

As for `Cc1cc(N)c2ccccc2[n+]1CCCCCCCCCCCCCC[n+]1c(C)cc(N)c2ccccc21` [Dequalinium analog, C-14 linker], the “Differences (%) in cell viability” value is 96.6%.

Regarding `Cc1cc(N)c2ccccc2[n+]1CCCCCCCCCC[n+]1c(C)cc(N)c2ccccc21` [Dequalinium dichloride], the “Differences (%) in cell viability” value is given as 60.6%.

With `C[C@@H]1O[C@@H](O[C@H]2C[C@@H](O)[C@]3(CO)[C@H]4[C@H](O)C[C@]5(C)[C@@H]([C@@H]6COC(=O)C6)CC[C@]5(O)[C@@H]4CC[C@]3(O)C2)[C@H](O)[C@H](O)[C@H]1O` [Dihydroouabain], the “Differences (%) in cell viability” value is listed as 97.0%.

Regarding `c1ccc2c(c1)[I+]c1ccccc1-2` [Diphenyleneiodonium chloride], the “Differences (%) in cell viability” value was 69.6%.

`CC[C@H]1CN2CCc3cc(OC)c(OC)cc3[C@@H]2C[C@@H]1C[C@H]1NCCc2cc(OC)c(OC)cc21` [Emetine dihydrochloride hydrate]: the “Differences (%) in cell viability” value was 93.4%.

On to `CC(C)[C@@]1(NC(=O)[C@@H]2C=C3c4cccc5[nH]cc(c45)C[C@H]3N(C)C2)O[C@@]2(O)[C@@H]3CCCN3C(=O)[C@H](Cc3ccccc3)N2C1=O` [Ergocristine], for which the “Differences (%) in cell viability” value is 52.5%.

In the case of `COc1cc([C@@H]2c3cc4c(cc3[C@@H](O[C@@H]3O[C@@H]5CO[C@@H](C)O[C@H]5[C@H](O)[C@H]3O)[C@H]3COC(=O)[C@H]23)OCO4)cc(OC)c1O` [Etoposide], the “Differences (%) in cell viability” value is 59.6%.

Consider `NC(=O)OCC(COC(N)=O)c1ccccc1` [Felbamate], for which the “Differences (%) in cell viability” value is listed as 50.5%.

In the case of `CCOC(=O)C1=C(C)NC(C)=C(C(=O)OC)C1c1cccc(Cl)c1Cl` (stereo not drawn) [Felodipine], the “Differences (%) in cell viability” value stood at 58.1%.

As to `COc1cccc2c1[C@@H]1CN(CCCCn3c(=O)[nH]c4c(sc5ncc(-c6ccccc6)nc54)c3=O)C[C@@H]1CO2` [Fiduxosin hydrochloride], the “Differences (%) in cell viability” value is given as 58.2%.

`O=C1NCN(c2ccccc2)C12CCN(CCCC(c1ccc(F)cc1)c1ccc(F)cc1)CC2` [Fluspirilene]: the “Differences (%) in cell viability” value is 86.7%.

As for `COc1ccc(NC(=O)c2ccc(-c3ccc(-c4noc(C)n4)cc3C)cc2)cc1N1CCN(C)CC1` [GR 127935 hydrochloride], the “Differences (%) in cell viability” value came to 66.1%.

`COc1cc(OC)c(C=C2C(O)=Nc3ccccc32)c(OC)c1` [IC 261]: the “Differences (%) in cell viability” value is recorded as 73.0%.

For `CC(=O)[C@]1(O)Cc2c(O)c3c(c(O)c2[C@@H](O[C@H]2C[C@H](N)[C@H](O)[C@H](C)O2)C1)C(=O)c1ccccc1C3=O` [Idarubicin], the “Differences (%) in cell viability” value stood at 94.0%.

In the case of `O=C1Nc2ccccc2/C1=C1/Nc2ccccc2/C1=N\O` [Indirubin-3′-oxime], the “Differences (%) in cell viability” value amounted to 85.5%.

With `O=S1(=O)N(CCN2CC=C(c3c[nH]c4cc(F)ccc34)CC2)c2cccc3c2N1CCC3` [LY-367,265], the “Differences (%) in cell viability” value was found to be 51.1%.

For the compound `CN1C[C@H](CNC(=O)OCc2ccccc2)C[C@@H]2c3cccc4c3c(cn4C)C[C@H]21` [Metergoline], the “Differences (%) in cell viability” value is recorded as 56.5%.

On to `CSc1ccc2c(c1)C(N1CCN(C)CC1)Cc1ccccc1S2` (stereo not drawn) [Methiothepin mesylate], for which the “Differences (%) in cell viability” value was determined as 52.4%.

On to `CC[C@H](C)C(=O)O[C@H]1CCC=C2C=C[C@H](C)[C@H](CC[C@@H]3C[C@@H](O)CC(=O)O3)[C@H]21` [Mevastatin], for which the “Differences (%) in cell viability” value is 98.0%.

As for `COCC(=O)O[C@]1(CCN(C)CCCc2nc3ccccc3[nH]2)CCc2cc(F)ccc2[C@@H]1C(C)C` [Mibefradil dihydrochloride], the “Differences (%) in cell viability” value stood at 62.2%.

Turning to `O=C1c2c(O)ccc(O)c2C(=O)c2c(NCCNCCO)ccc(NCCNCCO)c21` [Mitoxantrone], the “Differences (%) in cell viability” value was 94.4%.

In the case of `CCCCCCCC/C=C\CCCCCCCC(=O)NCCc1ccc(O)c(O)c1` [N-Oleoyldopamine], the “Differences (%) in cell viability” value is on record as 54.8%.

For the compound `Cc1ccc(S(=O)(=O)N[C@@H](Cc2ccccc2)C(=O)CCl)cc1` [N-p-Tosyl-L-phenylalanine chloromethyl ketone], the “Differences (%) in cell viability” value amounted to 63.9%.
